This is an account of results in paper PMC8177814 (Molecular pharmaceutics, 2020).

For data set [1], the target named is T1, BCRP (ABCG2) (Homo sapiens, UniProt Q9UNQ0).
T1 sequence (Q9UNQ0 1-655): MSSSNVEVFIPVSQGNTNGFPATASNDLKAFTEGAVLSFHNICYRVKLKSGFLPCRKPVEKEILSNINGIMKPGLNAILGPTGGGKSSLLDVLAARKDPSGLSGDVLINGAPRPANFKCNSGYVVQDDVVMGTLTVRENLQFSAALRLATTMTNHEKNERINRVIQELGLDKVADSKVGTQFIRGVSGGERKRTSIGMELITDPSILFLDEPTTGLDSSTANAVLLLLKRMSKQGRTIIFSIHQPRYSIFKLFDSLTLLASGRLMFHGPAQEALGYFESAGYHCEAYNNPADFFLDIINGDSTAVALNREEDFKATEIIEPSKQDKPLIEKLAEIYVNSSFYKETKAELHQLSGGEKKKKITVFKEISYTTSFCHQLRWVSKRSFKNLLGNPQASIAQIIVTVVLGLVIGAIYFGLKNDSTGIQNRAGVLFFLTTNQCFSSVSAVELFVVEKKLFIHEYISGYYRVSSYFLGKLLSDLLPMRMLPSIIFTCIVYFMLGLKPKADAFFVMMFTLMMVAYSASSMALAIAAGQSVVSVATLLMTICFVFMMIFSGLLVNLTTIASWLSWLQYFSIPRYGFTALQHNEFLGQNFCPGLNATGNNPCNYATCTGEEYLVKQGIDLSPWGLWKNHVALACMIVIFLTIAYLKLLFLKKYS
The settings on record: 30 min.

The target in data set [2] is T2, human BCRP (Homo sapiens, UniProt Q9UNQ0).
T2 sequence (Q9UNQ0 1-655): T1 sequence (Q9UNQ0 1-655)
Put plainly: BCRP vesicular transport assay.

A further data set relates to BCRP. The settings on record: previous study; cited from earlier work.
Data set [3] addresses T2, human BCRP.
Data set [4] deals with T1, BCRP (ABCG2). Put plainly: 3H-oxypurinol accumulation assay in BCRP-overexpressing HEK293 cells. To be noted: excipients at concentrations similar to vesicle screen; 30 min.

Where two headings read alike, the source gives them in different places.

As for `CCCCC(CC)COC(=O)CC(C(=O)OCC(CC)CCCC)S(=O)(=O)O` (stereo not shown) [Docusate sodium], the “increase of BCRP-mediated 3H-oxypurinol accumulation in BCRP-overexpressing HEK293 cells” value (from here on “increase”) at BCRP (ABCG2) [1] came out at 26.4%.

Regarding `CCN(Cc1cccc(S(=O)(=O)[O-])c1)c1ccc(C(=C2C=CC(=[N+](CC)Cc3cccc(S(=O)(=O)[O-])c3)C=C2)c2ccccc2S(=O)(=O)[O-])cc1.[Na+].[Na+]` [FD&C Blue No. 1], the “inhibition of BCRP-mediated 3H-CCK8 uptake in vesicles (in words)” value on human BCRP [2] (screening concentration, inhibitor = more than 50% inhibition) was “inhibited”. Further, in the data set on BCRP, the “inhibition of BCRP-mediated Lucifer yellow uptake in vesicle assays” value is reported as “did not inhibit”.

As for `CCN(CC)c1ccc2c(-c3ccccc3C(=O)O)c3ccc(=[N+](CC)CC)cc-3oc2c1` [Rhodamine B], the “increase” value at BCRP (ABCG2) [1] is “more than 50%”.

Turning to `O=C1OC(c2ccc(O)c(S(=O)(=O)O)c2)(c2ccc(O)c(S(=O)(=O)O)c2)c2c(Br)c(Br)c(Br)c(Br)c21` [bromosulfophthalein, reference compound], at human BCRP [2] (5 mM ATP and 200 μM BSP, 37 °C, 5 min (ATP alone 1.88, AMP 0.58)), the “3H-CCK8 uptake in human BCRP membrane vesicles” value was found to be 0.44 pmol/mg/min.

Take `COc1cc(/C=C/C(=O)CC(=O)/C=C/c2ccc(O)c(OC)c2)ccc1O` [curcumin, reference compound]: at BCRP (ABCG2) [1] (100 μM), the “(EV + I)/(EV – I), nonspecific effect on cell membranes” value is 0.571 and the “normalized oxypurinol accumulation ((BCRP + I)/(BCRP – I))/((EV + I)/(EV – I))” value was found to be 3.7.

Regarding `COc1ccc(CCC(=O)c2c(O)cc(O[C@@H]3O[C@H](CO)[C@@H](O)[C@H](O)[C@H]3O[C@@H]3O[C@@H](C)[C@H](O)[C@@H](O)[C@H]3O)cc2O)cc1O` [neohesperidin DC], the “inhibition of BCRP-mediated Lucifer yellow uptake in vesicle assays” value with BCRP is given as “did inhibit”. In addition, the “inhibition of BCRP-mediated 3H-CCK8 uptake in vesicles (in words)” value against human BCRP [3] is “did not inhibit”.

In the case of D&C Brown No. 1, the “increase” value at BCRP (ABCG2) [4] was 26.8%.
